For one data set, the target named is alpha-synuclein (Homo sapiens, UniProt P37840). Nature of the data set: alpha-synuclein aggregation, thioflavin T (ThT) fluorescence. The data set is classed as biochemical. The following applies: 20 μM. On the procedure: The antiaggregant effect of the compound of formula (Ia) according to the present invention on alpha-synuclein (αS) was evaluated in vitro by measuring the fluorescence intensity of the probe thioflavin T (ThT), a molecule that specifically binds to cross-β structures characteristic of amyloid-like aggregation. The compound of formula (Ia) was dissolved in dimethylsulfoxide to reach a concentration of […]. In this assay, 70 μM of alpha-synuclein was incubated with and without 10 μM, 20 μM and 50 μM of the compound of formula (Ia), under orbital agitation (600 rpm), at 37° C., for 5 days. After the incubation time, Tht was added to each sample and changes in the emission fluorescence spectra (λex=450 and λem=[…]) was monitored using a Horiba Fluoromax CP4 spectrofluorometer.

A further data set concerns E. coli ATCC 25922. Description: MIC, broth dilution (Example 3). The data set is classed as cell-based. Particulars: Escherichia coli, ATCC25922; 18 h at 37° C., MH broth. On the procedure:
(§1) Bacterial strains used in this study were: S. aureus (ATCC25923), E. coli (ATCC25922), E. faecalis (ATCC29212) and P. aeruginosa (PA01). Strains were maintained at −80° C. in 15% (v/v) glycerol for cryoprotection. Bacteria were routinely grown in Mueller-Hinton (MH) broth at 37° C.
(§2) The susceptibility of bacterial strains to antibiotics and compounds was determined in microplates using the standard broth dilution method in accordance with the recommendations of the Comité de 1′Antibiogramme de la Société Française de Microbiologie (CA-SFM). (Members of the SFM Antibiogram Committee, R. Int. J. Antimicrob. Agents 2003, 21, 364). Briefly, the Minimal Inhibitory Concentrations (MICs) were determined with an inoculum of 10^5 CFU in 200 μL of MH broth containing two-fold serial dilutions of each drug. […] To determine all MICs, the measurements were independently repeated in triplicate.
(§3) The compound of formula (Ia) according to the invention was tested against clinical isolates Gram-bacteria (P. aeruginosa, E. coli) and Gram+ bacteria (S. aureus, E. faecalis). Minimum inhibitory concentrations (MIC) were tentatively determined and compared to known antibiotic tetracyclines (doxycycline, demeclocycline, chlortetracycline) and to the compound of formula (B) disclosed in Example 1 of the present application. The test was reproduced twice and the average MIC were calculated.

The subject of another data set is E. faecalis ATCC 29212. Nature of the data set: MIC, broth dilution (Example 3). The data set is classed as cell-based. Particulars: Enterococcus faecalis, ATCC29212; 18 h at 37° C., MH broth. The procedure:
as §1, §2, §3
(In general: Broth dilution looks for growth in wells or tubes with falling amounts of substance.)

The subject of another data set is P. aeruginosa PA01. Nature of the data set: MIC, broth dilution (Example 3). The following applies: Pseudomonas aeruginosa, 18 h at 37° C., MH broth. The data set is classed as cell-based. On the procedure:
as §1, §2, §3

A further data set concerns S. aureus ATCC 25923. Nature of the data set: MIC, broth dilution (Example 3). Particulars: Staphylococcus aureus, ATCC25923; 18 h at 37° C., MH broth. The data set is classed as cell-based. On the procedure:
as §1, §2, §3

Data set [1] concerns Gram+ and Gram- bacteria (S. aureus, E. coli, E. faecalis, P. aeruginosa). Nature of the data set: Antibiotic activity, summary over the bacterial strains (Examples 3 and 7). The data set is classed as cell-based. Further details: key to Antibiotic activity: low: Weak antibiotic activity on only 1 of the 3 bacterial strains (i.e. S aureus); high: Strong antibiotic activity on all 3 bacterial strains; Significant antibiotic activity on two bacterial strains. Particulars: summary over bacterial strains. The procedure: as §1, §2, §3
(§4) The properties of tetracycline derivatives, including the compound of formula (Ia) according to the present invention, were compared regarding the neuroprotection, anti-inflammatory effects, anti-aggregant activity, and antibiotic activity. The properties were evaluated as described herein above.
(§5) EC50s, IC50s determined graphically, *Rescue of dopamine neurons from spontaneous oxidative stress; ** TNF α release inhibition under LPS exposure, ^#Weak antibiotic activity on only 1 of the 3 bacterial strains (i.e. S aureus). ##Strong antibiotic activity on all 3 bacterial strains. ^###Significant antibiotic activity on two bacterial strains.

The test system of data set [2] is dopaminergic neurons (TH+ neurons). Description: Neuroprotection: rescue of dopamine neurons from spontaneous oxidative stress in primary cultures. The data set is classed as cell-based. Particulars: for EC50: Neuron, read-out: Neuroprotection (EC 50 μM). On the procedure: In primary cultures of dopaminergic neurons, TH+ neurons suffer from oxidative stress, leading to the death of the neurons after a few days. When cultured in the presence of a positive reference (apotransferrin), the dopaminergic neurons survive. The neuroprotective effects of 10 μM of doxycycline (DOX) and of 3 μM or 5 μM of the compound of formula (Ia) according to the present invention were evaluated, compared to the effect of 100 μg/mL of apotransferrin (APO).
as §4, §5

The subject of data set [3] is microglia cells (TNF α release under LPS). Nature of the data set: Anti-inflammatory effect in microglia, TNF α release inhibition under LPS exposure. The data set is classed as cell-based. The following applies: TNF α release inhibition under LPS exposure, determined graphically; for IC50: Microglia, read-out: Anti inflammatory effects (IC 50 in μM). The procedure: Microglia is in charge of the protection of the neurons. However, under stress conditions, microglia cells are responsible of inflammatory phenomena, leading eventually to the death of the neurons. The anti-inflammatory effects of 5 μM and 20 μM of compound of formula (B) presented in Example 1, of 5 μM and 20 μM of compound of formula (Ia) according to the present invention and of 50 μM of doxycycline (DOX) were evaluated, compared to the effect of 2.5 μM of dexamethasone (DEX). Microglia is in charge of the protection of the neurons. However, under stress conditions, microglia cells are responsible of inflammatory phenomena, leading eventually to the death of the neurons. The anti-inflammatory effects of 10 μM and 20 μM of compound of formula (C) (“10 μM (C)” and “20 μM (C)”) and of 10 μM and 20 μM of compound of formula (Ia) according to the present invention (“10 μM (Ia)” and “20 μM (Ia)”) were evaluated, compared to the effect of 2.5 μM of dexamethasone (“DEX”). The properties of tetracycline derivatives, including the compound of formula (Ia) according to the present invention, were compared regarding the neuroprotection, anti-inflammatory effects, anti-aggregant activity, and antibiotic activity. The properties were evaluated as described herein above. EC50s, IC50s determined graphically, *Rescue of dopamine neurons from spontaneous oxidative stress; ** TNF α release inhibition under LPS exposure, ^#Weak antibiotic activity on only 1 of the 3 bacterial strains (i.e. S aureus). ##Strong antibiotic activity on all 3 bacterial strains. ^###Significant antibiotic activity on two bacterial strains.

Another data set relates to dopamine neurons. Nature of the data set: Neuroprotection in midbrain mouse cultures, survival of TH+ dopamine neurons. The data set is classed as cell-based. Particulars: 10 μM, div14. On the procedure: (§6) Midbrain mouse cultures were subjected to a maturation step until day in vitro (div) 7, and then gradually exposed to phenol red formulated DMEM/Nutrient mixture F12 Ham supplemented with 20 μg/mL of insulin and 2 μM of the NMDA receptor blocker MK-801. Under these conditions, which favor low-level, sustained oxidative insults, and lead ultimately to dopamine cell death, treatments with the compound of formula (Ib) according to the invention (at a concentration ranging from 0.1 to 5 μM) were performed or not, as well as treatments with the reference tetracycline antibiotic doxycycline (DOX; 10 μM) and the glycoprotein apotransferrin (APO; 100 μg/mL), the latter being used as reference neuroprotectant. At div14, cultures were fixed, and then processed for tyrosine hydroxylase (TH) immunocytochemistry to estimate the survival of dopamine neurons.
as §6, with “(Ic)” for “(Ib)”, “with” for “with the reference tetracycline antibiotic doxycycline (DOX; 10 μM) and”

A short description of data set [4]: Brain penetration after single subcutaneous injection. The data set is classed as in vivo. The following applies: mouse, brain and serum, sc; 40 mg/kg single subcutaneous injection, Swiss mice, 30 min to 24 h, n=3; read-out: brain-to-plasma ratio calculated from the area under the concentration time curves. On the procedure: Adult Swiss mice received a single subcutaneous injection of 40 mg/kg of the compound of formula (Ia) according to the present invention, the compound of formula (C), or doxycycline diluted in saline with 5% DMSO and 5% Tween 80 (doxycycline was used as a reference tetracycline). The mice were sacrificed 30 min, 1 h, 8 h, and 24 h after treatment. After sacrifice, brain and serum samples were collected and processed at each time point for tetracycline dosage, using an UHPLC system coupled with a triple quadrupole mass spectrometer LCMS-8030 (Shimadzu Corporation, Kyoto, Japan).

Where [5] appears, read: rescue of dopamine neurons from spontaneous oxidative stress, determined graphically.

In brackets after ≈: the same amount, converted by molar mass. Read-outs that look alike come from different tables or passages of the source. A value given as a limit tells only on which side of the number the result lay.

Results on 8 compounds are retold here after patent US20260021119A1, “TETRACYCLINE DERIVATIVES” (ICM (INSTITUT DU CERVEAU ET DE LA MOELLE ÉPINIÈRE), priority 2022, published 2026).

Usually MIC stands for the lowest concentration that inhibits growth of the organism. In the case of `CN(C)[C@@H]1C(O)=C(C(N)=O)C(=O)[C@@]2(O)C(O)=C3C(=O)c4c(O)ccc(Cl)c4[C@@](C)(O)[C@H]3C[C@@H]12` [Chlortetracycline], the “Anti aggregant activity at 20 μM” value at alpha-synuclein is listed as “yes”. Also, the MIC with E. coli ATCC 25922 worked out at 6.25 µM (≈ 2.99 µg/mL); in the data set on E. faecalis ATCC 29212, 1.6 µM (≈ 0.766 µg/mL); in the data set with P. aeruginosa PA01 it was 32 µM (≈ 15.3 µg/mL); against S. aureus ATCC 25923, 1.6 µM (≈ 0.766 µg/mL). For the same compound, the Antibiotic activity result in data set [1] is on record as “high”. For the same compound, the “Neuroprotection (EC 50 μM)” value in [2] (setting [5]) was “no”. Further, in data set [3], the IC50 amounted to 1 µM.
Take `C[C@H]1c2cccc(O)c2C(=O)C2=C(O)[C@]3(O)C(=O)C(C(N)=O)=C(O)C[C@@H]3[C@@H](O)[C@@H]21` [Compound of formula (B)]: the “Anti aggregant activity at 20 μM” value at alpha-synuclein is “yes”. For the same compound, the MIC against E. coli ATCC 25922 was 200 µM; in the data set on P. aeruginosa PA01 it was more than 2000 µM; with S. aureus ATCC 25923, 25 µM. The Antibiotic activity entry in data set [1] is recorded as “low”. The “Neuroprotection (EC 50 μM)” value in data set [2] (setting [5]) is recorded as “no”. Moreover, the “Anti inflammatory effects (IC 50 in μM)” value in data set [3] is “no”.
In the case of `CN(C)[C@@H]1C(O)=C(C(N)=O)C(=O)[C@@]2(O)C(O)=C3C(=O)c4c(O)ccc(Cl)c4[C@@H](O)C3CC12` (stereo partly shown) [Compound of formula (D)], at alpha-synuclein, the “Anti aggregant activity at 20 μM” value is recorded as “yes”. Besides, the Antibiotic activity result in data set [1] was “high^##”. In addition, the EC50 in [2] (setting [5]) came out at 1.84 µM. In addition, the “Anti inflammatory effects (IC 50 in μM)” value in [3] is given as “no”.
In the case of `CC1(O)c2c(Cl)ccc(O)c2C(=O)C2=C(O)C3C(=O)C(C(N)=O)=C(O)CC3CC21` (stereo not shown) [Compound of formula (E)], the “Anti aggregant activity at 20 μM” value on alpha-synuclein was “yes”. The Antibiotic activity result in data set [1] is “low”. Also, in data set [2], the EC50 is 2.01 µM. The “Anti inflammatory effects (IC 50 in μM)” value in data set [3] was “no”.
Take `NC(=O)C1=C(O)C[C@@H]2C[C@@H]3Cc4cccc(O)c4C(=O)C3=C(O)[C@]2(O)C1=O` [Compound of formula (F), incyclinide]: the “Anti aggregant activity at 20 μM” value on alpha-synuclein is “yes”. Moreover, the Antibiotic activity result in [1] is “Significant^###”. Besides, the “Neuroprotection (EC 50 μM)” value in data set [2] (setting [5]) was “no”. Moreover, the IC50 in [3] is 8 µM.
The corresponding values for `CC1c2ccc(-c3ccccc3)c(O)c2C(=O)C2=C(O)C3(O)C(=O)C(C(N)=O)=C(O)CC3[C@@H](O)C21` (stereo partly shown) [Compound of formula (G)] are “yes”, “low”, “no” and 8 µM.
With `CN(C)[C@@H]1C(O)=C(C(N)=O)C(=O)[C@@]2(O)C(O)=C3C(=O)c4c(O)ccc(Cl)c4[C@@H](O)[C@H]3C[C@@H]12` [Demeclocycline], the MIC with E. coli ATCC 25922 was 3.12 µM (≈ 1.45 µg/mL); in the data set with E. faecalis ATCC 29212 it was 0.4 µM (≈ 0.186 µg/mL); against P. aeruginosa PA01, 32 µM (≈ 14.9 µg/mL); against S. aureus ATCC 25923, 0.4 µM (≈ 0.186 µg/mL).
Take `C[C@H]1c2cccc(O)c2C(=O)C2=C(O)[C@]3(O)C(=O)C(C(N)=O)=C(O)[C@@H](N(C)C)[C@@H]3[C@@H](O)[C@@H]21` [Doxycycline]: the “Anti aggregant activity at 20 μM” value on alpha-synuclein is recorded as “yes”. For the same compound, the MIC was 3.12 µM (≈ 1.39 µg/mL) against E. coli ATCC 25922, 0.4 µM (≈ 0.178 µg/mL) in the data set on E. faecalis ATCC 29212, 64 µM (≈ 28.4 µg/mL) against P. aeruginosa PA01 and 0.4 µM (≈ 0.178 µg/mL) against S. aureus ATCC 25923. Further, the Antibiotic activity entry in data set [1] is “high”. For the same compound, in data set [2] (10 μM, compared to apotransferrin 100 μg/mL), the neuroprotective effect entry was “shows a neuroprotective effect”. Also, the EC50 in data set [2] (setting [5]) amounted to 5.2 µM. Also, in the data set on dopamine neurons, the “neuroprotective effect (survival of dopamine neurons)” value is “shows a neuroprotective effect”. Moreover, the IC50 in [3] was 45 µM. Besides, the Kp in data set [4] is 0.11 ± 0.03.
